What was measured:
[1] = molecular target: T1, 75 kDa subunit of complex I (Rattus norvegicus, UniProt Q66HF1); test: SUPEROSE 6 chromatography S-nitrosothiol profile with biotin switch identification of S-nitrosated peptide; format: biochemical; details: S-nitrosoglutathione-treated mitochondria
T1 construct: Mitochondrial protein (3 mg) was extracted in 300 μL of column running buffer; from tissue; host or cells: rat heart mitochondria, SUPEROSE 6 column fraction enriched in complex I
Description: To simplify separation of complex I, SUPEROSE™ 6 gel filtration chromatography was employed as a liquid phase high-throughput separation method (Danial, et al. (2003) Nature 424:952-6). Chemiluminescent analysis of column fractions was then used to construct an S-nitrosothiol profile. Most S-nitrosothiol concentrated in two regions of the chromatogram, eluting at ˜35% and 85% of the column bed volume.
The fraction with most S-nitrosothiol content was enriched in complex I activity, and was then further analyzed by biotin switch assay to identify S-nitrosated peptides (i.e., which of the 46 subunits in complex I was S-nitrosated). […]
A 25 cm×1 cm BIO-RAD® glass ECONO-COLUMN™ was used, with appropriate flow adaptor (BIO-RAD®, Hercules Calif.) and a MASTERFLEX™ peristaltic pump (Cole Parmer, Vernon Hills, Ill.). […] Fractions (200 μL) were collected, and their A280 measured to determine relative protein content. In addition, the S-nitrosothiol content and complex I activity of each fraction were analyzed as disclosed herein. […] Therefore, for data comparison the relative position of eluted column fractions was expressed as a percentage of the total column bed volume. […]
For biotin-switch analysis, intact mitochondrial pellets (1 mg protein solubilized in extraction buffer) or chromatography column fractions were analyzed in accordance with known methods (Jaffrey & Snyder (2001) supra). […]

[2] = tested on: isolated adult rat cardiomyocytes; test: Cardiomyocyte model of ischemia-reperfusion injury, cell viability by Trypan blue exclusion; format: cell-based; details: for protection of cardiomyocyte viability from ischemia-reperfusion injury: 1 hour ischemia, 30 minutes reoxygenation
Experimental: Isolated adult rat cardiomyocytes were subjected to 1 hour ischemia (anoxic, glucose free medium, pH 6.5) followed by 30 minutes reoxygenation (labeled “HR”). Cell viability was assayed by Trypan blue exclusion. […] All data are means±SEM, N>3.
Adult rat cardiomyocytes were prepared by collagenase perfusion according to standard methods (Dai, et al. (2001) supra), yielding ˜4×10^6 cells per heart, >80% rod-shaped and viable. Incubations were in a shaking water bath at 37° C., each utilizing 5×10^5 cells in 5 mL of the KH buffers described below. For the control, cells were incubated for 2 hours in oxygenated KH buffer (95/5 O2/CO2). For ischemia-reperfusion treatment, cells were subjected to 30 minutes in oxygenated KH buffer, 1 hour in “ischemic” KH buffer (95/5 N2/CO2, pH 6.5, no glucose), and 30 minutes in oxygenated KH buffer. For the ischemia-reperfusion injury and test compound group of cells, ischemia-reperfusion injury was carried out as described above with test compound present during the 30 minute equilibration prior to ischemia-reperfusion and absent during ischemia. […] At the end of each protocol, cell viability was assayed (Trypan blue), and mitochondrial function determined (measurement of ΔΨm with the fluorescent probe TMRE, respiration with an O2 electrode, and S-nitrosothiol content by chemiluminescence and biotin-switch.

T1 sequence (Q66HF1 24-727, one chain of several): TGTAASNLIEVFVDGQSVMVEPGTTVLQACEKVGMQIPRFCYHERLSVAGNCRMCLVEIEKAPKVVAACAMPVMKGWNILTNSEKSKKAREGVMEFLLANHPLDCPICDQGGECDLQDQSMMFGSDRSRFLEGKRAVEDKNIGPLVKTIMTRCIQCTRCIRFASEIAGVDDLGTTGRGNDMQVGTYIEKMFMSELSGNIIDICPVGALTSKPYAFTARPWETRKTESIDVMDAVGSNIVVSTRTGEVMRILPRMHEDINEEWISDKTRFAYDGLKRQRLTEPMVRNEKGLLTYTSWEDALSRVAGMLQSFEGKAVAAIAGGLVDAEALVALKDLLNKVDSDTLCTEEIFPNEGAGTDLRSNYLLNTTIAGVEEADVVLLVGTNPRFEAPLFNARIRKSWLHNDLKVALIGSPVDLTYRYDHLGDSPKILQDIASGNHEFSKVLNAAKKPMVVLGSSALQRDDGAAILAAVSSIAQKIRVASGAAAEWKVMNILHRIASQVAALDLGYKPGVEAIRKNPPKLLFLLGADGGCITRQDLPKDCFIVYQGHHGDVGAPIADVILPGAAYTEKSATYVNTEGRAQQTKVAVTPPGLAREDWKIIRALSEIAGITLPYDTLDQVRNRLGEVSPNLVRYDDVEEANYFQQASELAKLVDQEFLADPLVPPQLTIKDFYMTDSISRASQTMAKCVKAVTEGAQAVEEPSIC

## N[C@@H](CCC(=O)N[C@@H](CSN=O)C(=O)NCC(=O)O)C(=O)O [S-nitrosoglutathione]
[1]
  share of total protein-bound S-nitrosothiol contained in the 75 kDa subunit of complex I: ~20%
[2]
  concentration required to achieve levels of protection comparable to 10-20 μM S-nitroso-2-mercaptopropylglycine: 100 μM
[2]; 10 μM
  protection of cardiomyocyte viability from ischemia-reperfusion injury: no protection
[2]; 100 μM
  protection of cardiomyocyte viability from ischemia-reperfusion injury: significant protection

Reference: patent US20060122267A1, “Compositions and methods for attenuating mitochondria-mediated cell injury” (priority 2003, published 2006)
